Experimental data as given in patent US20080153792A1, “Drug Identification and Treatment Method” (priority 2006, published 2008).

Experiments:
db/db C57BL/Ks mice = experiment: glucose lowering in diabetic db/db mice; type: in vivo, mouse
Procedure: Glucose lowering and amelioration of insulin resistance. Glucose lowering effects and amelioration of insulin resistance was assessed in the diabetic db/db mouse model of human diabetes and insulin resistance. In these studies, db/db C57BL/Ks mice of approximately 8 to 10 weeks of age were divided into groups of 10 each and then treated with a vehicle control (no drug) or 17α-ethynylandrost-5-ene-3β,7β,17β-triol by oral gavage. The compound was administered twice a day at 20 mg/kg/day (10 mg/kg dose administered twice per day), 40 mg/kg/day (20 mg/kg dose administered twice per day) or 80 mg/kg/day (40 mg/kg dose administered twice per day) for up to 28 days. Blood glucose levels were monitored twice a week during the dosing period, using a minute amount of blood (nick tail bleeds) to measure the concentration of glucose by glucometer strips. At specific times during the dosing period (day 14 and day 28), an oral glucose tolerance test (OGTT) was also performed by administering a standard oral dose of 1 g/kg glucose (approximately 40 mg in a […]) and then the fluctuation of blood glucose levels was monitored quickly thereafter after at 15, 30, 60 and 120 minutes after the glucose dose. […] Blood glucose approached 380 mg/dL in the vehicle control group and was <230 mg/dL after at least 10 days of dosing in the drug treated group.
A treatment protocol similar to that described in example 15 was performed with db/db mice that were younger than the animals described in example 15. The animals (n=8 to 10 per group) were treated with 17α-ethynylandrost-5-ene-3β,7β,17β-triol or vehicle by oral gavage twice per day at 40 mg/kg/day (20 mg/kg dose given twice per day) and 80 mg/kg/day (40 mg/kg dose given twice per day). At the start of dosing, the animals were 6 weeks of age, before the onset of elevated glucose levels or hyperglycemia. Dosing with vehicle or drug was maintained for 32 days to determine the effect of the treatments on the onset and rate of progression of hyperglycemia in the animals. In the control group, the onset of hyperglycemia was observed after 25 days of dosing and it continued to worsen, i.e., blood glucose levels rose from normal to frank hyperglycemia, through the end of the 32 day dosing period.

[1] = test system: CD1 male mice, carrageenan-λ induced pleurisy; experiment: carrageenan-λ induced lung (pleural cavity) inflammation in mice; type: in vivo, mouse; conditions: 1 mg and 0.1 mg by oral gavage

In the case of `C#C[C@]1(O)CC[C@H]2[C@@H]3[C@@H](O)C=C4C[C@@H](O)CC[C@]4(C)[C@H]3CC[C@@]21C` [17α-ethynylandrost-5-ene-3β,7β,17β-triol], the “peak glycemic excursion in OGTT” value (db/db C57BL/Ks mice; 80 mg/kg b.i.d. for 28 days, 30-min post-oral glucose, vehicle approximately 400 mg/dL) is reported as under 200 mg/dL, the “progression into the hyperglycemic state” value (db/db C57BL/Ks mice; 6 week old male db/db mice, 40 mg/kg) is reported as “completely blocked progression” and the “basal blood glucose hyperglycemic levels” value (db/db C57BL/Ks mice; 8 week old male db/db mice, 40 mg/kg dose group, twice-a-day, apparent after 10 days) is reported as “markedly suppressed”. The blood glucose (db/db C57BL/Ks mice; after at least 10 days of dosing, vehicle approached 380 mg/dL) was under 230 mg/dL, the “levels of glucose by the end of the 32 day dosing period” value (db/db C57BL/Ks mice; db/db mice 6 weeks of age at start, 40 mg/kg/day and 80 mg/kg/day oral, twice per day) was “did not rise above normal levels” and the “decrease in hyperglycemic blood glucose levels” value (db/db C57BL/Ks mice; db/db mice 8 to 10 weeks of age, oral gavage twice a day) was “approximately 40%”. The “glucose intolerance in OGTTs compared to vehicle” value (db/db C57BL/Ks mice; treated db/db animals) was “significant amelioration of glucose intolerance” and the “anti-inflammation activity versus vehicle controls” value [1] was “statistically significant anti-inflammation activity”.
